# Reference: patent publication EP2589390B1, “PHARMACEUTICAL COMPOSITION FOR TREATING CENTRAL AND PERIPHERAL NERVOUS SYSTEM DISEASES OF VASCULAR, TRAUMATIC, TOXIC, HYPOXIC AND […]” (Aktsionernoe Obschestvo "Pharm-Sintez", priority 2010, dated 2012)
# System: mice bone marrow polychromatophils
# Conditions: positive control
# [1] = 20 mg/kg intraperitoneally in male mice
# Excerpt: The Study purpose is to reveal and quantitatively assess the cytogenetic activity (mutagenicity) of the pharmacologic drugs in the mammalian bone marrow polychromatophils. The method's base is the micronuclei cells microscopic registration.
# The experimental used the male and female F1(CBAx C57BI6/J) hybrid mice, two-month age, 18 to 20 grams body weight. Every group included 6 animals. The animals were kept under the 12-hour light regime, with freely available water and food. The single and five fold administration protein-polypeptide complex mutagenicity assessment animal experiments were in compliance with the official protocols. Three experimental series with relevant controls were performed: therapeutic dosage: males, single administration; subtoxic dose: males, single administration; and therapeutic dosage: males and females, five fold administration.
# The protein-polypeptide complex mutagenicity assessment dose was defined on the basis of the maximum recommended daily therapeutic dose (TD) for human. The 2 ml at 0.1 mg/ml concentration IV administration is recommended. The therapeutic dose for human, including infant, may be 0.05 mg/kg/day. To calculate the mice experimental dose, the conversion factor is recommended to take into account the human and murine body surface area to body mass ratio. In our study it was 8.33.
# For the subtoxic dose the maximum possible experimental one was used, 10 mg/kg, as the substance concentration was 0.1 mg/ml; the conventional total substance administered to mice is 0.1 ml per 10 g body weight.
# Seven groups of animals, four experimental and three control ones, were formed. […]
# The bone marrow cells preparation for the micronuclei account were made in conventional manner, in accordance with the "Micronuclear Test Environmental Factors Mutagenicity Assessment in Mammalia Organs Cells" Guidelines. […] 2000 polychromatophils per animal were then analyzed with coded preparations. At the 500 erythrocytes count the polychromatophil to normochromatic erythrocytes ratio was determined. […]
structure (smiles),measurement,setting,value
O=P1(N(CCCl)CCCl)NCCCO1 (stereo not drawn) [cyclophosphamide],higher micronuclei cells vs. control,[1],19.6 fold
same,micronuclei cells,[1],62.1 ‰
same,polychromatophil to normochromatic erythrocytes ratio,"20 mg/kg intraperitoneally, P < 0.005 vs control",shift to the latter ones
